Assay results as given in patent publication US9926340B2, “NAD analogs and methods of using said NAD analogs in determining ribosylation of proteins with PARP mutants” (The Board of Regents of the University of Texas System, priority 2015, dated 2018).
“Also recorded” adds a separate entry of the source.

What was measured:
Assay in all cases: Automodification reaction, ADP-ribose Western blot / in-gel fluorescence after click to azido-rhodamine
Format in all cases: biochemical
Details in all cases: FIG. 5I
[1] = target: T1, asPARP-1 (PARP-1 L877A) (Mus musculus, UniProt P11103, L876A)
T1 construct: relative to un-shifted full length PARP-1 measured by densitometry of anti-PARP-1 western blots; made in house; host or cells: Sf9 insect cells (baculovirus)
T1 sequence (P11103 whole entry L876A): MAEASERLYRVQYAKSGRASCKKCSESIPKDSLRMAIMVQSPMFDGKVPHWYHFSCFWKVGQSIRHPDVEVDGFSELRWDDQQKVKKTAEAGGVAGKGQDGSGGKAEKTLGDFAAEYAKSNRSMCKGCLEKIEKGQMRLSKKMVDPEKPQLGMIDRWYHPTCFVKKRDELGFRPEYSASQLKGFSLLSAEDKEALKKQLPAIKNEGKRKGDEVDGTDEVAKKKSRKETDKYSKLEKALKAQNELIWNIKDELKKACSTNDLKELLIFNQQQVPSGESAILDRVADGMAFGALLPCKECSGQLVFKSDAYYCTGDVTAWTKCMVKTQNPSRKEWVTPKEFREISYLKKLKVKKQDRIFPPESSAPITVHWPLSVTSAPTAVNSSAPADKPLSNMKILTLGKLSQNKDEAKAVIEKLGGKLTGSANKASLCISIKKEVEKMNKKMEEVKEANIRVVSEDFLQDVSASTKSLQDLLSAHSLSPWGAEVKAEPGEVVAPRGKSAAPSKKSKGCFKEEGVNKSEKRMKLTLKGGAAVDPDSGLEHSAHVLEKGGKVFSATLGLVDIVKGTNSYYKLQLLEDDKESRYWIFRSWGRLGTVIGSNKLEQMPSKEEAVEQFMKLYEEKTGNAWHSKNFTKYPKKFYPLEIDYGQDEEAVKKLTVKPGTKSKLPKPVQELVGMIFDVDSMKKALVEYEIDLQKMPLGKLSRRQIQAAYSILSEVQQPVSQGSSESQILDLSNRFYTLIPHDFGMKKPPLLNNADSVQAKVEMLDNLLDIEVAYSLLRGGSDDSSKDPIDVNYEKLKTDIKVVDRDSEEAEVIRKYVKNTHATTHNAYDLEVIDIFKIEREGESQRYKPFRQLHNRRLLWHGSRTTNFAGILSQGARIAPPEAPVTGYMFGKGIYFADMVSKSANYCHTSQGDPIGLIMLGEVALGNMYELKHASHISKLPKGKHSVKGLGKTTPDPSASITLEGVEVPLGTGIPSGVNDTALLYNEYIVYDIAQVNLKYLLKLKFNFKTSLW
Description: (§1) In vitro automodification reactions. 200 ng PARP Protein was incubated in Automodification Buffer (30 mM HEPES, pH 8.0, 5 mM MgCl2, 5 mM CaCl2, 0.01% NP-40, 1 mM DTT, 100 ng/mL sonicated salmon sperm DNA (Stratagene), 100 ng/mL BSA (SIGMA)) with NAD^+ or NAD^+ analogs as indicated at 25° C. for 5 (PARP-1 and PARP2) or 30 minutes (PARP3) for Sf9-purified proteins and for 45 minutes for bacterially purified enzymes.
(§2) Reactions were stopped by addition of ⅓ reaction volume with 4×SDS-PAGE Loading Buffer (200 mM Tris, pH 6.8, 8% SDS, 40% Glycerol, 4% β-mercaptoethanol, 50 mM EDTA, 0.08% Bromophenol Blue) followed by boiling at 100° C. for 5 minutes. Reaction products in 1×SDS-PAGE buffer were then resolved on a 10% SDS-PAGE gel, transferred to a nitrocellulose membrane and blotted with a polyclonal antibody against PARP-1 or with an antibody-like detection reagent against ADP-ribose (MABE1016, Millipore). Relative quantitation of PARP-1 automodifications was performed by the ratio of PARylation-induced […] in SDS-PAGE mobility relative to un-shifted full length PARP-1 measured by densitometry of anti-PARP-1 western blots.
(§3) Reactions were stopped by methanol:chloroform precipitation (Wessel and Flugge, 1984). The protein pellets were clicked to azido-Rhodamine (Click Chemistry Tools) in Denaturing CC Buffer (100 mM HEPES, pH 8, 4 M Urea, 0.5 M NaCl, 2% CHAPS, 10 μM azido-Rhodamine, 1 mM THPTA (Click Chemistry Tools), 5 mM CuSO4, 5 mM Sodium Ascorbate) with Azido-Rhodamine, THPTA:CuSO4 complex, and Sodium Ascorbate each added sequentially in written order. […]
(§4) The automodification reactions were stopped by the addition of one third of a reaction volume of 4×SDS-PAGE Loading Buffer (200 mM Tris.HCl, pH 6.8, 8% SDS, 40% glycerol, 4% 3-mercaptoethanol, 50 mM EDTA, 0.08% bromophenol blue) followed by heating to 100° C. for 5 min. […] Relative quantification of PARP-1 automodification was performed using densitometry and was expressed as the ratio of the PARylation-induced decrease in PARP-1 mobility relative to non-shifted PARP-1. […]

[2] = target: T2, asPARP-2 (L443A) (Homo sapiens, UniProt Q9UGN5, L443A)
T2 construct: made in house; host or cells: Sf9 insect cells (baculovirus)
T2 sequence (Q9UGN5 whole entry L443A): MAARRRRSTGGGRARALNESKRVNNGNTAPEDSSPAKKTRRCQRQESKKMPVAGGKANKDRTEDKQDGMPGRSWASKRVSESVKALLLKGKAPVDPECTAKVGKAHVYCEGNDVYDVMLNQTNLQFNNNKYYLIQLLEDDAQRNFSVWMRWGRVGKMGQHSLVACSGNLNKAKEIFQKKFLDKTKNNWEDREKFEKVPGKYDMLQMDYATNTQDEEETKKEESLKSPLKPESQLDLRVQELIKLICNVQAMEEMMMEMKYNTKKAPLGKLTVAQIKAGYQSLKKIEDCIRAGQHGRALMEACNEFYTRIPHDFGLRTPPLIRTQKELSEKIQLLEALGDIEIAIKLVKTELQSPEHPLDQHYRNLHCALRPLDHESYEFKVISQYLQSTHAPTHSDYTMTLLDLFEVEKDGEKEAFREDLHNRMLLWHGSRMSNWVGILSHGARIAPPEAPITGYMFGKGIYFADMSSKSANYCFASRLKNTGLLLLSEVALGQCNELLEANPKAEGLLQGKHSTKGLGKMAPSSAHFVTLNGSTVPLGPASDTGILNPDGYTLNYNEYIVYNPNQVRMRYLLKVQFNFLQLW
Description: as §1, §2, §3, §4

[3] = target: T3, asPARP-3 (L394A) (Mus musculus, UniProt Q3ULW8, L399A)
T3 construct: made in house; host or cells: Sf9 insect cells (baculovirus)
T3 sequence (Q3ULW8 1-528 isoform Q3ULW8-2 L394A): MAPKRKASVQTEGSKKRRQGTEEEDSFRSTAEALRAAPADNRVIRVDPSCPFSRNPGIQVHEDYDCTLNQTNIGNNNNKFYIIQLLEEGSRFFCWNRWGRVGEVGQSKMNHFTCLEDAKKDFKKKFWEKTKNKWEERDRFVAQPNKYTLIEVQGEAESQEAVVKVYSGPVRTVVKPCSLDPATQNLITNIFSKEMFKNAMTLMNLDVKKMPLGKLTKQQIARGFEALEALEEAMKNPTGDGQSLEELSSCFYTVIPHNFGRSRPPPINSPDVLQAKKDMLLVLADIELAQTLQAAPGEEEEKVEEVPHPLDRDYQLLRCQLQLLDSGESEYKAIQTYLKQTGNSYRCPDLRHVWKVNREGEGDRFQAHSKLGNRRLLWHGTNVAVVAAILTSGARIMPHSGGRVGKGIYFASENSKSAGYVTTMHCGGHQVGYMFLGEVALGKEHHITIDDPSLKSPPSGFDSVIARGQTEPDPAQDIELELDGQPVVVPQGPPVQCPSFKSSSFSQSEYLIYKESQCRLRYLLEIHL
Description: as §1, §2, §3, §4

In the case of `C#CCCSc1nc2c(N)ncnc2n1[C@@H]1O[C@H](COP(=O)(O)OP(=O)(O)OC[C@H]2O[C@@H]([n+]3cccc(C(N)=O)c3)C(O)C2O)[C@H](O)C1O` (stereo partly drawn) [8-Bu(3-yne)T-NAD^+], the “catalytic activity of asPARP-1 with the NAD analog” value [1] is reported as “catalytically active”, the “catalytic activity of asPARP-2 with the NAD analog” value [2] is reported as “catalytically active; also recorded: supports activity” and the “catalytic activity of asPARP-3 with the NAD analog” value [3] is reported as “catalytically active; also recorded: supports activity”.
